Results taken from BindingDB's records for doi:10.1111/cbdd.12887 (Josip Juraj Strossmayer University of Osijek, 2017).

target: T1, Dipeptidyl peptidase 3 (Homo sapiens, UniProt Q9NY33); test: DPP III Enzyme Activity Assay; settings: pH 7.4; 37 °C
T1 sequence (Q9NY33 whole entry): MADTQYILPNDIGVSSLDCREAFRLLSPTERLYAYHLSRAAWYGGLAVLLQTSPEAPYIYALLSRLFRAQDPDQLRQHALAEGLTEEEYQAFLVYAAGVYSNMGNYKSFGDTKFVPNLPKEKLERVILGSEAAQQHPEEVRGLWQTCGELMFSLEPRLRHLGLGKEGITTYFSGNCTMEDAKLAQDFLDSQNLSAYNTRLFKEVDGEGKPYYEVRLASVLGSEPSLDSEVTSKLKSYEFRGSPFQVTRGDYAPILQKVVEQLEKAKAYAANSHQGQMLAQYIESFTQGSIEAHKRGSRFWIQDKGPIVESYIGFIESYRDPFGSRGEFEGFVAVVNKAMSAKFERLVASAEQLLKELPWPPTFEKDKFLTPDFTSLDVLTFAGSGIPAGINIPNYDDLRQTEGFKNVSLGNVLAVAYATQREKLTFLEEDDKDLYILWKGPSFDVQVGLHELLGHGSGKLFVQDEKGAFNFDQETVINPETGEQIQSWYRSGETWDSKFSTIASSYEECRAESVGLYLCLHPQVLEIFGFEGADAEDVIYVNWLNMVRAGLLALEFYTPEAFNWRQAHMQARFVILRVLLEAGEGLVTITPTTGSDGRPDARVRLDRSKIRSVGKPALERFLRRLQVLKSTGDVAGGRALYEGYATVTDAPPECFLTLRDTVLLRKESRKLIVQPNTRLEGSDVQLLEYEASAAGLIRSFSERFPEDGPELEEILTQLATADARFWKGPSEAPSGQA
Description: The inhibitory activity of flavonoids toward human DPP III was assayed in a 50 mM Tris-HCl buffer, pH 7.4. In brief, recombinant human DPP III (0.29 nM) was preincubated with increasing concentrations of flavonoid first for 1 min at 25°C and then for 3 min at 37°C. The enzymatic reaction was started with Arg-Arg-NA (40 μM) as a substrate, and after the 15 min incubation at 37°C in a water bath, the reaction was stopped and the absorbance was measured using the spectrophotometric method described above[Abramić et al., Biol. Chem. Hoppe-Seyler., 369:29]. The stock solutions of flavonoids were prepared daily in dimethyl sulfoxide (DMSO, Sigma-Aldrich).

SMILES | IC50
O=c1cc(-c2ccc(O)cc2)oc2cc(O)cc(O)c12 [Naringenin, 18] | 54 µM
O=C1C[C@@H](c2ccccc2)Oc2ccccc21 [Flavanone] | 437 µM
O=c1c(O)c(-c2ccccc2)oc2ccccc12 [3-hydroxy-2-phenyl-4H-chromen-4-one] | 188 µM
O=c1cc(-c2ccccc2)oc2cc(O)cc(O)c12 [5,7-dihydroxy-2-phenyl-4H-chromen-4-one] | 123 µM
O=c1cc(-c2ccccc2)oc2ccccc12 [flavone] | 293 µM
O=c1c(O)c(-c2ccc(O)c(O)c2)oc2cc(O)cc(O)c12 [2-(3,4-dihydroxyphenyl)-3,5,7-trihydroxy-chromone;hydrate] | 74.1 µM
O=c1cc(-c2ccc(O)c(O)c2)oc2cc(O)cc(O)c12 [2-(3,4-dihydroxyphenyl)-5,7-dihydroxy-4H-chromen-4-one] | 22 µM
O=c1c(O)c(-c2ccc(O)cc2O)oc2cc(O)cc(O)c12 [2-(2,4-dihydroxyphenyl)-3,5,7-trihydroxychromen-4-one] | 85 µM
O=c1c(O)c(-c2ccccc2)oc2cc(O)ccc12 [3,7-dihydroxy-2-phenyl-4H-chromen-4-one] | 98 µM

Now from value to compound:

IC50 | SMILES
56.4 µM | O=c1c(O)c(-c2ccccc2)oc2ccc(O)cc12 [3,6-dihydroxy-2-phenyl-4H-chromen-4-one]
23.4 µM | O=c1c(O)c(-c2ccccc2)oc2cc(O)cc(O)c12 [norizalpinin]
24.9 µM | O=c1c(O)c(-c2ccc(O)c(O)c2)oc2cc(O)ccc12 [2-(3,4-dihydroxyphenyl)-3,7-dihydroxy-chromen-4-one]
32.9 µM | O=c1c(O)c(-c2ccc(O)cc2)oc2cc(O)cc(O)c12
82.2 µM | O=c1cc(-c2ccccc2)oc2ccc(O)cc12 [6-hydroxy-2-phenyl-4H-chromen-4-one]
36.6 µM | O=c1c(-c2ccc(O)cc2)coc2cc(O)cc(O)c12 [Prunetol]
